Data taken from patent US20070161513A1, “3-[1-halo-1-arylmethanesulfonyl]- and 3-[1-halo-1-heteroarylmethanesulfonyl]- isoxazoline derivatives, processes for preparing them, and use as herbicides and plant growth regulators” (Bayer CropScience GmbH, priority 2005, published 2007).

Legend:
[1] = system: weed plants such as Avena spp., Lolium multiflorum, Stellaria media, Setaria spp., Sinapis alba and Amaranthus retroflexus; assay: Pre-emergence herbicidal activity (pot test under glass); assay type: in vivo; conditions: applied pre-emergence at a rate of 2 kg or less of active substance per hectare; WP formulation; visual scoring after 3 weeks vs untreated controls
From the text: 1. Pre-Emergence Herbicidal Activity Seeds of monocot and dicot weed and crop plants are planted out in sandy loam soil in wood fiber pots and covered with soil. The test compounds, formulated as wettable powders (WP), are then applied to the surface of the soil cover, in the form of an aqueous suspension, at a water application rate of 600 I/ha (converted), in various dosages, with the addition of 0.2% of wetting agent. After the treatment, the pots are set up under glass and held under good growth conditions for the test plants. Visual scoring of the emergence damage to the trial plants is made after a trial period of 3 weeks in comparison with untreated controls (herbicidal activity in percent (%): 100% activity=plants have died, 0% activity=like control plants).

[2] = system: weed plants such as Sinapis alba, Echinochloa crus-galli, Cyperus iria, Avena spp., Stellaria media, Setaria spp., and Amaranthus retroflexus; assay: Post-emergence herbicidal activity (pot test under glass); assay type: in vivo; conditions: applied post-emergence (one-leaf stage) at a rate of 2 kg or less of active substance per hectare; WP formulation; visual scoring after about 3 weeks vs untreated controls
Experimental: 2. Post-Emergence Herbicidal Activity Seeds of monocot and dicot weed and crop plants are planted out in sandy loam soil in wood fiber pots, covered with soil, and cultivated under glass under good growth conditions. Two-three weeks after sowing, the trial plants are treated at the one-leaf stage. The test compounds, formulated as wettable powders (WP), are then sprayed onto the green parts of the plants, at a water application rate of 600 I/ha (converted), in various dosages, with the addition of 0.2% of wetting agent. After the trial plants have stood for about 3 weeks under glass under optimum growth conditions, the effect of the products is scored visually in comparison with untreated controls. (herbicidal activity in percent (%): 100% activity=plants have died, 0% activity=like control plants).

Compound | herbicidal activity against weed plants, pre-emergence [1] | herbicidal activity against weed plants, post-emergence [2]
CC1(C)CC(S(=O)(=O)C(Cl)c2ccccc2)=NO1 (stereo not drawn) [Compound I-1.1, 3-{[Chloro(phenyl)methyl]sulfonyl}-5,5-dimethyl-4,5-dihydroisoxazole] | very good herbicidal activity | very good herbicidal activity
CC1(C)CC([S+]([O-])C(Cl)c2ccccc2)=NO1 (stereo not drawn) [III-1.1] | very good herbicidal activity | very good herbicidal activity
CC1(C)CC([S+]([O-])C(Cl)c2c(F)cccc2Cl)=NO1 (stereo not drawn) [III-5.1, 3-{[Chloro(2-chloro-6-fluorophenyl)methyl]sulfinyl}-5,5-dimethyl-4,5-dihydroisoxazole] | very good herbicidal activity | very good herbicidal activity
